Assay results from ChEMBL document CHEMBL3817807, “Sequence-specific DNA binding by long hairpin pyrrole-imidazole polyamides containing an 8-amino-3,6-dioxaoctanoic acid unit” (Bioorg Med Chem, 2016).
Activity calls are given as the source filed them. The calls are words filed in the database; no cut-off is given here.

Tests used:
[1] = Binding affinity to TAGTCAGCC oligonucleotide DNA sequence (unknown origin) at 50 nM incubated for 16 hrs by PCR based Bind-n-Seq analysis
[2] = Binding affinity to ATGTCTGCC oligonucleotide DNA sequence (unknown origin) at 50 nM incubated for 16 hrs by PCR based Bind-n-Seq analysis
[3] = Binding affinity to TGGCAGACT oligonucleotide DNA sequence (unknown origin) at 50 nM incubated for 16 hrs by PCR based Bind-n-Seq analysis
[4] = Binding affinity to TGTCAGCGA oligonucleotide DNA sequence (unknown origin) at 50 nM incubated for 16 hrs by PCR based Bind-n-Seq analysis
[5] = Binding affinity to GTGTCAGCC oligonucleotide DNA sequence (unknown origin) at 50 nM incubated for 16 hrs by PCR based Bind-n-Seq analysis
[6] = Binding affinity to TGTCAGCCT oligonucleotide DNA sequence (unknown origin) at 50 nM incubated for 16 hrs by PCR based Bind-n-Seq analysis
[7] = Binding affinity to GGCTGACTG oligonucleotide DNA sequence (unknown origin) at 50 nM incubated for 16 hrs by PCR based Bind-n-Seq analysis
[8] = Binding affinity to GGTTGACAT oligonucleotide DNA sequence (unknown origin) at 50 nM incubated for 16 hrs by PCR based Bind-n-Seq analysis
[9] = Binding affinity to TGGCAGACA oligonucleotide DNA sequence (unknown origin) at 50 nM incubated for 16 hrs by PCR based Bind-n-Seq analysis
[10] = Binding affinity to AGTCAGCCT oligonucleotide DNA sequence (unknown origin) at 50 nM incubated for 16 hrs by PCR based Bind-n-Seq analysis
[11] = Binding affinity to ATCGGCAAA oligonucleotide DNA sequence (unknown origin) at 50 nM incubated for 16 hrs by PCR based Bind-n-Seq analysis
[12] = Binding affinity to AAAGGAATC oligonucleotide DNA sequence (unknown origin) at 50 nM incubated for 16 hrs by PCR based Bind-n-Seq analysis
[13] = Binding affinity to AGAAAGGCG oligonucleotide DNA sequence (unknown origin) at 50 nM incubated for 16 hrs by PCR based Bind-n-Seq analysis
[14] = Binding affinity to TATGGCTCA oligonucleotide DNA sequence (unknown origin) at 50 nM incubated for 16 hrs by PCR based Bind-n-Seq analysis
[15] = Binding affinity to CCTTTCGGC oligonucleotide DNA sequence (unknown origin) at 50 nM incubated for 16 hrs by PCR based Bind-n-Seq analysis
[16] = Binding affinity to AAAGAAGGC oligonucleotide DNA sequence (unknown origin) at 50 nM incubated for 16 hrs by PCR based Bind-n-Seq analysis
[17] = Binding affinity to AAAGGCCGA oligonucleotide DNA sequence (unknown origin) at 50 nM incubated for 16 hrs by PCR based Bind-n-Seq analysis
[18] = Binding affinity to GGGCAGAAA oligonucleotide DNA sequence (unknown origin) at 50 nM incubated for 16 hrs by PCR based Bind-n-Seq analysis
[19] = Binding affinity to AGGCGAAAT oligonucleotide DNA sequence (unknown origin) at 50 nM incubated for 16 hrs by PCR based Bind-n-Seq analysis
[20] = Binding affinity to AAAGGGTAA oligonucleotide DNA sequence (unknown origin) at 50 nM incubated for 16 hrs by PCR based Bind-n-Seq analysis

| Activity [1] | Activity [2] | Activity [3] | Activity [4] | Activity [5] | Activity [6] | Activity [7] | Activity [8] | Activity [9] | Activity [10] | Activity [11] | Activity [12] | Activity [13] | Activity [14] | Activity [15] | Activity [16] | Activity [17] | Activity [18] | Activity [19] | Activity [20] | SMILES |
| --- | --- | --- | --- | --- | --- | --- | --- | --- | --- | --- | --- | --- | --- | --- | --- | --- | --- | --- | --- | --- |
| Active | Active | Active | Active | Active | Active | Active | Active | Active | Active | – | – | – | – | – | – | – | – | – | – | CC(=O)Nc1cn(C)c(C(=O)Nc2cn(C)c(C(=O)NCCOCCOCC(=O)Nc3cn(C)c(C(=O)Nc4cc(C(=O)Nc5cc(C(=O)NCCCC(=O)Nc6cn(C)c(C(=O)Nc7cc(C(=O)Nc8cc(C(=O)NCCC(=O)Nc9cn(C)c(C(=O)Nc%10cc(C(=O)Nc%11cc(C(=O)NCCC(=O)NCCCN(C)CCCNC(=O)CCOCCOCCOCCOCCOCCOCCOCCOCCOCCOCCOCCOCCNC(=O)CCCC[C@@H]%12SC[C@@H]%13NC(=O)N[C@@H]%13%12)n(C)c%11)n(C)c%10)n9)n(C)c8)n(C)c7)n6)n(C)c5)n(C)c4)n3)n2)n1 |
| – | – | – | – | – | – | – | – | – | – | Active | Active | Active | Active | Active | Active | Active | Active | Active | Active | CC(=O)Nc1cn(C)c(C(=O)Nc2cn(C)c(C(=O)Nc3cc(C(=O)NCCC(=O)Nc4cn(C)c(C(=O)Nc5cc(C(=O)Nc6cc(C(=O)NCCCC(=O)Nc7cn(C)c(C(=O)Nc8cc(C(=O)NCCOCCOCC(=O)Nc9cn(C)c(C(=O)Nc%10cc(C(=O)Nc%11cc(C(=O)NCCC(=O)NCCCN(C)CCCNC(=O)CCOCCOCCOCCOCCOCCOCCOCCOCCOCCOCCOCCOCCNC(=O)CCCC[C@@H]%12SC[C@@H]%13NC(=O)N[C@@H]%13%12)n(C)c%11)n(C)c%10)n9)n(C)c8)n7)n(C)c6)n(C)c5)n4)n(C)c3)n2)n1 |
